The values that follow come from ChEMBL document CHEMBL1201862, “PubChem BioAssay data set” (2004).

As a reminder, the AC50 is the concentration giving half of the maximal activity seen. For orientation: EC50 means the concentration needed to bring the measured effect to its halfway point. For orientation: CC50 means the concentration giving 50% cytotoxicity.

Active and inactive are the calls of the source.

Assay [1] concerns the target Heat shock protein HSP 90-alpha (Homo sapiens, UniProt P07900). It counts as functional, organism-based.
A short description of assay [2]: C. albicans growth with fluconazole, confirmation, fluorescence, retest (AID 2467). It counts as functional, cell-based.
In a further assay the target is Genome polyprotein (dengue virus type 2, UniProt P29990). Briefly: Dengue-2 NS5 methyltransferase inhibitors, primary screen, biochemical, confirmation dose response (AID 588689). Format: functional.
A further assay has as its system Streptococcus. Briefly: Group A Streptococcus viability loss, dose response, counter-screen for streptokinase expression inhibitor project, luminescence, BacTiterGlo (AID 1915).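 Also: potency for reduction of bacterial viability or growth.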 Format: functional, organism-based. (In general: Counterscreens check selectivity or assay interference.)
Assay [3] can be described thus: NIH-3T3 fibroblast cytotoxicity, dose response, cytotoxicity control, cell-based, fluorescence, Alamar Blue, secondary assay (AID 2327).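 Also: NIH-3T3 mouse fibroblasts cultured with fluconazole at 8 µg/mL.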 It counts as functional. On the technique in general: Alamar Blue is a resazurin reagent that responds to reducing activity.
For a further assay, the target named is NS3 (Hepatitis C virus, UniProt A3EZJ3). Nature of the assay: PubChem AID 2173. Further details: species or system Hepacivirus hominis.
The target of assay [4] is ATP-dependent molecular chaperone HSP82 (Candida albicans (strain WO-1) (Yeast), UniProt C4YTQ8). Nature of the assay: loss of DOC-induced GRE-beta-galactosidase reporter signal, dose response, Hsp90 inhibitor project, S. cerevisiae, luminescence (AID 2400).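 Also: beta-galactosidase luminescence from glucocorticoid response element reporter as proxy for Hsp90 function; inhibitor potency where signal loss means Hsp90 inhibition.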 Format: functional, cell-based.
In the next assay the test system is Vero. Nature of the assay: Vero cell cytotoxicity, cytotoxicity control for flavivirus capping enzyme inhibitors (AID 588742). It counts as functional. The settings on record: Chlorocebus sabaeus.
Assay [5] concerns the target T1, Serine/threonine-protein phosphatase (Candida dubliniensis (strain CD36 / CBS 7987 / NCPF 3949 / NRRLY-17841) (Yeast), UniProt B9W6M3).
T1 sequence (B9W6M3 whole entry): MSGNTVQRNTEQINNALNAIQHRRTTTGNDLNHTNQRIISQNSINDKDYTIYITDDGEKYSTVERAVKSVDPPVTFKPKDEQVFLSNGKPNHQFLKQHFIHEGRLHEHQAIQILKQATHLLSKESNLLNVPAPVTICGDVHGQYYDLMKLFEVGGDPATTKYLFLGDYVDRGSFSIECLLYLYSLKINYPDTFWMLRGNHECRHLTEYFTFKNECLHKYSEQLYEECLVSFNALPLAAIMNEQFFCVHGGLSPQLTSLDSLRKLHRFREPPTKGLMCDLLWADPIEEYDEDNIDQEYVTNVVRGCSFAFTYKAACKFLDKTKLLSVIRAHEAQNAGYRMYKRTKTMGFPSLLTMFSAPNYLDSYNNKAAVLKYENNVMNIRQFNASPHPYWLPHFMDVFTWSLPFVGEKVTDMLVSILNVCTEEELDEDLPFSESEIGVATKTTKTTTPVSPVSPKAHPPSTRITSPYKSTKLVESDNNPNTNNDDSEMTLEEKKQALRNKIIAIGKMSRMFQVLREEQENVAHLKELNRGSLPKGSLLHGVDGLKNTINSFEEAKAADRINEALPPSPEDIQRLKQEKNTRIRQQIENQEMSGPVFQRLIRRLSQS
Nature of the assay: calcineurin pathway inhibitors in yeast reporter, dose response, S. cerevisiae, CDRE-lacZ, luminescence, secondary (AID 2388).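 Also: yeast reporter cells carrying a calcineurin-responsive lacZ construct stimulated with calcium chloride; luminescent beta-galactosidase reporter signal in whole cells rather than isolated phosphatase activity; potency for inhibition where a drop in reporter signal means calcineurin blockade.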 It counts as functional, cell-based.

Assay [6] deals with Streptococcus sp. 'group A'. Briefly: growth inhibition of control SK(-) GAS strain, dose response, counter-screen for streptokinase expression inhibitor project, luminescence, kanamycin, BacTiterGlo, confirmation (AID 1900). It counts as functional, organism-based.
The target in assay [7] is Eukaryotic translation initiation factor 4E (Mus musculus, UniProt P63073). Briefly: eIF4E–eIF4G protein interaction inhibitors, dose response, biochemical, TR-FRET (AID 855).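 Also: potency for disrupting eIF4E binding to eIF4GI seen as loss of FRET.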 Format: functional.
Assay [8] in a line: Luminescence-based counterscreen assay for KLF5 inhibitors: dose response cell-based high throughput screening assay to identify cytotoxic compounds using the IEC-6 intestinal epithelial cell line. [Related pubchem assays: 1700 (Primary screen.), 1834 (Confirmation screen.), 1858 (Summary AID.), 1905 (Counterscreen.)]. It counts as functional.
Assay [9] in a line: inhibitors of intracellular T. cruzi replication, confirmation, NIH3T3 host cells, beta-gal luminescence (AID 2044).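 Also: intracellular parasites grown in NIH/3T3 mouse fibroblasts as host cells; luminescent beta-galactosidase reporter signal from transgenic T. cruzi replicating inside host cells; inhibitors lower the luminescence signal.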 It counts as functional, cell-based.
Assay [10] has as its target T2, Polyadenylate-binding protein 1 (Homo sapiens, UniProt P11940). Nature of the assay: PABP1 MLLE–PAM2 interaction inhibitors, dose response, miRNA deadenylation inhibitor project, biochemical, fluorescence polarization, Cy5-PAM2 peptide, secondary (AID 602260). Format: functional. The settings on record: read-out: IC50_Mean.
In assay [11] the target is T2, Polyadenylate-binding protein 1. Nature of the assay: PABP1 MLLE–PAM2 binding inhibitor potency, dose response, biochemical, fluorescence polarization, FITC-PAM2 peptide (AID 602259). The settings on record: read-out: IC50_Mean. It counts as functional. Background: In fluorescence polarisation assays a small probe gives low polarisation when free and higher when bound to something large.

The target in assay [12] is Neuropeptide Y receptor type 1 (Homo sapiens, UniProt P25929). Nature of the assay: Fluorescence-based counterscreen for agonists of NPY-Y2: cell-based high-throughput dose response assay for agonists of NPY-Y1. Format: functional.
Assay [13] concerns the target Neuropeptide Y receptor type 2 (Homo sapiens, UniProt P49146). Briefly: Fluorescence-based cell-based high-throughput dose response assay for agonists of NPY-Y2. [Related pubchem assays: 1703 (Screening assay (CNGC inhibitors).), 1359 (Screening assay (NPY-Y2 potentiators or agonists).), 1304 (Screening assay (NPY-Y1 potentiators or agonists).), 1710 (Screening assay (NPY-Y2 agonists).), 1791 (Summary AID.)]. Format: functional.

For another assay, the system named is HEK293. Briefly: Fluorescence-based counterscreen for potentiators or agonists of NPY-Y2: cell-based high-throughput dose response assay to identify inhibitors of cyclic nucleotide gated ion channel (CNGC) activity. In this assay, the parental HEK293 cell line transfected with a cyclic-nucleotide gated ion channel (CNGC)-based cAMP sensor is used to measure inhibition of isoproterenol-induced CNGC activity by test compound. Format: functional. The settings on record: Homo sapiens.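 Also: stimulus is 1 µM isoproterenol at EC100 plus PDE inhibitor Ro 20-1724 at 25 µM.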

The nature of assay [14]: cytotoxicity toward NIH3T3 fibroblasts, dose response, counter-screen, cell-based, ATP luminescence, mouse fibroblasts (AID 2010).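 Also: cells exposed to compound for about 90 hours before reading.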 It counts as functional.
The target of assay [15] is T3, Eukaryotic translation initiation factor 2-alpha kinase 3 (Homo sapiens, UniProt Q9NZJ5). Nature of the assay: Dose response cell-based high-throughput screening assay to measure PERK inhibition. [Related pubchem assays: 1416 ]. It counts as functional.
In assay [16] the target is T3, Eukaryotic translation initiation factor 2-alpha kinase 3. Nature of the assay: Counterscreen assay for PERK inhibitors: Dose response cell-based high throughput screening assay to measure inhibition of PERK at 6 hours. [Related pubchem assays: 1522, 1416 ]. Format: functional.
A further assay has as its target T4, Insulin-degrading enzyme (Homo sapiens, UniProt P14735).
T4 sequence (P14735 whole entry): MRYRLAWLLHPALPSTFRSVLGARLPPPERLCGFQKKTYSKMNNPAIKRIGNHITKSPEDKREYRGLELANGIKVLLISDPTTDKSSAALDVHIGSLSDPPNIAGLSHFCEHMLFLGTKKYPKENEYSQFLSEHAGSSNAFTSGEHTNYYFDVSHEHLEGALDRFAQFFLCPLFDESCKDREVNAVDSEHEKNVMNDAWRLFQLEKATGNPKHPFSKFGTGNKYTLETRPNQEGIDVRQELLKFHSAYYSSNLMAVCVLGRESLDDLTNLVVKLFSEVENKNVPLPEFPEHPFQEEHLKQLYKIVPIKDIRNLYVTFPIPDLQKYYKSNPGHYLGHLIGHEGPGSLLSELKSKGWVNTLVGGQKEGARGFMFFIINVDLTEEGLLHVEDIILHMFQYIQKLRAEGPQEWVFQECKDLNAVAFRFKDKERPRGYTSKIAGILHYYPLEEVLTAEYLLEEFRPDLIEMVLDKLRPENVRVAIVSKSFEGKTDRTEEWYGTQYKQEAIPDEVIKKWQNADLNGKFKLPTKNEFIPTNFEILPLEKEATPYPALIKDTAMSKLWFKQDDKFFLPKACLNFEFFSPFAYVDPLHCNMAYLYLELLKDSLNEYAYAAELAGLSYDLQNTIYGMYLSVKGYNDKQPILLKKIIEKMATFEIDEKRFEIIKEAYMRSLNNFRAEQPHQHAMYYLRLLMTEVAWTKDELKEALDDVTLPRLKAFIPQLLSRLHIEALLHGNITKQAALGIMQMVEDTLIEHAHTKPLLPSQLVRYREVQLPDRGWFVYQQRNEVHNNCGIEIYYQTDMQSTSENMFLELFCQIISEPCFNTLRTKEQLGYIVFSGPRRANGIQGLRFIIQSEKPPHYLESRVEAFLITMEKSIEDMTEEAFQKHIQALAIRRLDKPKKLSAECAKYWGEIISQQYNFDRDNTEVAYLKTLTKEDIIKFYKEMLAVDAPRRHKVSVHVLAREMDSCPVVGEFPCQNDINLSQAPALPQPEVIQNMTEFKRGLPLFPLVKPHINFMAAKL
Nature of the assay: Dose Response: Fluorescence polarization-based cell-based high throughput dose response assay for inhibitors of insulin-degrading enzyme (IDE). [Related pubchem assays: 434962 (Primary screen (IDE inhibitors in singlicate)), 449730 (Counterscreen (Cytotoxicity in triplicate)), 435028 (Confirmation (IDE inhibitors in triplicate)), 434984 (Summary …. It counts as functional.

Assay [17] can be described thus: Counterscreen for IDE inhibitors: Luminescence-based cell-based high throughput dose response assay to identify compounds that are cytotoxic to HEK cells. [Related pubchem assays: 434962 (Primary screen (IDE inhibitors in singlicate)), 449730 (Counterscreen (Cytotoxicity in triplicate)), 435028 (Confirmation (IDE inhibitors in triplicate)) …. Format: functional. The settings on record: HEK293.

T3 sequence (Q9NZJ5 whole entry): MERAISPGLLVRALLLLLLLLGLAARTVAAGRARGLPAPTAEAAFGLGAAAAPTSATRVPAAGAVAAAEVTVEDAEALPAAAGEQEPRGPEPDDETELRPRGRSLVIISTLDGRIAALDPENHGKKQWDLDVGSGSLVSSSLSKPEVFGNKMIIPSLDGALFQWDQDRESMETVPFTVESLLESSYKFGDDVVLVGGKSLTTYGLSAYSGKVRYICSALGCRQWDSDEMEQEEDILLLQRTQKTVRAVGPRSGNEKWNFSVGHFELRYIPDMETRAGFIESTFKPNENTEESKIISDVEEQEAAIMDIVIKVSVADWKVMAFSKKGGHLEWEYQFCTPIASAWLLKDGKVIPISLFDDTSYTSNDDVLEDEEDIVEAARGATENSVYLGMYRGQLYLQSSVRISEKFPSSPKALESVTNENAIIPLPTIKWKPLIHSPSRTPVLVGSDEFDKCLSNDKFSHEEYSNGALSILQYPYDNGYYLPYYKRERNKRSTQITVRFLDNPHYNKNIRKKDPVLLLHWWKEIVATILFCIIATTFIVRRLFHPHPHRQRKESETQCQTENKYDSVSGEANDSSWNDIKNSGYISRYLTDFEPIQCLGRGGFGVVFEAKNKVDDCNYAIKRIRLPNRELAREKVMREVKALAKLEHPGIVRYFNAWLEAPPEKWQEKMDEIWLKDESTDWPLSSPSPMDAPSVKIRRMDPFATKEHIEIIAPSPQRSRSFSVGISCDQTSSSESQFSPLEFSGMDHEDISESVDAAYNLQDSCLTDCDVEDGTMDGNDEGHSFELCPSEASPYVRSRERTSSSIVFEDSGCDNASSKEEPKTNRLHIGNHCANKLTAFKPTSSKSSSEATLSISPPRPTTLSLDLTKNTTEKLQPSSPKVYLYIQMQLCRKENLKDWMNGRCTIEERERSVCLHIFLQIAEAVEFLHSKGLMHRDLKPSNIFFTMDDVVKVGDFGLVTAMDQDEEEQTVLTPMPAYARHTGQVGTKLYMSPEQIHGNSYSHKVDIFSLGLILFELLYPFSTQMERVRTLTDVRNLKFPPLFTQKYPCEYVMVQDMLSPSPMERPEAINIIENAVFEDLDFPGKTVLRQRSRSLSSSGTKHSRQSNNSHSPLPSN
T2 sequence (P11940 whole entry): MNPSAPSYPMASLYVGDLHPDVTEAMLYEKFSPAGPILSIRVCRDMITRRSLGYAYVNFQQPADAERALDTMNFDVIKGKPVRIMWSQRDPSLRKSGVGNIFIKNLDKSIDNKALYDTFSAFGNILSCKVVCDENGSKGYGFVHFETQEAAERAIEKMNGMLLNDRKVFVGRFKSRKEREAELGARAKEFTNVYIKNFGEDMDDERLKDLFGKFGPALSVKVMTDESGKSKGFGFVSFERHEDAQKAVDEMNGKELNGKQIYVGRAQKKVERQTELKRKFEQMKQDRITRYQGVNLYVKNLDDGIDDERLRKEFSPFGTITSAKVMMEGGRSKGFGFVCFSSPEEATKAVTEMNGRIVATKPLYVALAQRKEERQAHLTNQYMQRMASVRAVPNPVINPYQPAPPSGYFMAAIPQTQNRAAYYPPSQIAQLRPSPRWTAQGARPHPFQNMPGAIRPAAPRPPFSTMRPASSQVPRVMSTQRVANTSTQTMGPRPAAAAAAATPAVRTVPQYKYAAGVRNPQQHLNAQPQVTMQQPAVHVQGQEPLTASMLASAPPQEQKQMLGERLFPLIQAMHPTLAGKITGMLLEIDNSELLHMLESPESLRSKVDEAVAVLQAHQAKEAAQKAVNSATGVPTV
ATP-dependent molecular chaperone HSP82, sequence (C4YTQ8 whole entry): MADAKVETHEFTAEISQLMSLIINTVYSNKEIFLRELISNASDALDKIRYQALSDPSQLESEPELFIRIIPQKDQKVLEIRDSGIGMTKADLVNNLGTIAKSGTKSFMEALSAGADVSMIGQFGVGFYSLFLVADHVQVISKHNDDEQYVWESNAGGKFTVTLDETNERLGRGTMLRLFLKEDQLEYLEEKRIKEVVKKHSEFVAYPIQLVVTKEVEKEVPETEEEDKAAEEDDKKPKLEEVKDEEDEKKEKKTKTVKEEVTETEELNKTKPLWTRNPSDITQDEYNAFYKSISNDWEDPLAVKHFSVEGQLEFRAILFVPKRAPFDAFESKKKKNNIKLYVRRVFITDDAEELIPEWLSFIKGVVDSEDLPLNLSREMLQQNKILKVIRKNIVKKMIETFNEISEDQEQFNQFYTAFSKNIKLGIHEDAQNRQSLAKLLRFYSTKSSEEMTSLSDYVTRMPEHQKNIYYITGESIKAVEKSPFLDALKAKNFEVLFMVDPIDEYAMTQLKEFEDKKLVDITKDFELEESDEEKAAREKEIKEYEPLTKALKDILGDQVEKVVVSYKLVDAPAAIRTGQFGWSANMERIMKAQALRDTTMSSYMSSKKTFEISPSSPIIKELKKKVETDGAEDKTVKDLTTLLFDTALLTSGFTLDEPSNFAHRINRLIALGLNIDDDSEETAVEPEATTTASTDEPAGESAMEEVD
Neuropeptide Y receptor type 1, sequence (P25929 whole entry): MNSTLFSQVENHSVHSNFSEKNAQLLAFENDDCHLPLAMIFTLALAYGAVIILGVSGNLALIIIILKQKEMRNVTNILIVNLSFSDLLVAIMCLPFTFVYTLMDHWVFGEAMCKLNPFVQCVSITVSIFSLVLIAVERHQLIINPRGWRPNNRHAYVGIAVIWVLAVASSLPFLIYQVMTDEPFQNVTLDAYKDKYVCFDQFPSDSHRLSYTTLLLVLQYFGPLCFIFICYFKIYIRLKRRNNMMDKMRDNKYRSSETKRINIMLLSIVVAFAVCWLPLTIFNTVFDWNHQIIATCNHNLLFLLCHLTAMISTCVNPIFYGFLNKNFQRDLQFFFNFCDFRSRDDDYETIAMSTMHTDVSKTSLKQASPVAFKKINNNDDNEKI
Genome polyprotein, sequence (P29990 2492-3391 limits assumed): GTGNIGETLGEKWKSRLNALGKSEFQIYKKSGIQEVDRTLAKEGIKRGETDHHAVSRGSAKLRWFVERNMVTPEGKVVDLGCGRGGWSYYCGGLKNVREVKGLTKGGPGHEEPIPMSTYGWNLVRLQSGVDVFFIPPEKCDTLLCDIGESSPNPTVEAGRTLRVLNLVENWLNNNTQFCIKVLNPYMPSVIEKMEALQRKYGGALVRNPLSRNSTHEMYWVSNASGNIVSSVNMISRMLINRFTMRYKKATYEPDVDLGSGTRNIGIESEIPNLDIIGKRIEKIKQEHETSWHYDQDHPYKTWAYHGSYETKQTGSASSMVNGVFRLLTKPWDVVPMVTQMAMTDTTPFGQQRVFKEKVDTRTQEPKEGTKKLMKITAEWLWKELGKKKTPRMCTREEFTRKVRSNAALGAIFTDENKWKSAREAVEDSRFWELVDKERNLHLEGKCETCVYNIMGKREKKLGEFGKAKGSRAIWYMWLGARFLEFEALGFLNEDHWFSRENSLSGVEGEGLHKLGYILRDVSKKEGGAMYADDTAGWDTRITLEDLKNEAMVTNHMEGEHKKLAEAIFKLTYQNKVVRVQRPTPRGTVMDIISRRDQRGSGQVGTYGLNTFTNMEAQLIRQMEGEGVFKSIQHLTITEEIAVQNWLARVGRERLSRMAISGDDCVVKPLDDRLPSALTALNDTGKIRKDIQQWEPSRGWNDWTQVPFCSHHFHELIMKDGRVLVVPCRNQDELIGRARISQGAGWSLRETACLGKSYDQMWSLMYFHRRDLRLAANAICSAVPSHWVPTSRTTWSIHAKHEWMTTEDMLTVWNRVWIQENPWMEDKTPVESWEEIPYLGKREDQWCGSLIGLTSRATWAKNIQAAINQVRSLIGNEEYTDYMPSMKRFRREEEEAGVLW
Eukaryotic translation initiation factor 4E, sequence (P63073 whole entry): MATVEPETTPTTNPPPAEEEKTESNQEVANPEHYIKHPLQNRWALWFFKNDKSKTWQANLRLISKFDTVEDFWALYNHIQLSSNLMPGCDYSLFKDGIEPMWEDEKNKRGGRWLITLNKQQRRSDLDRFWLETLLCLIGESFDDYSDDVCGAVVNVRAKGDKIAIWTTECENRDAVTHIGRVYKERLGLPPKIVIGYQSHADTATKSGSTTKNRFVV
NS3, sequence (A3EZJ3 whole entry): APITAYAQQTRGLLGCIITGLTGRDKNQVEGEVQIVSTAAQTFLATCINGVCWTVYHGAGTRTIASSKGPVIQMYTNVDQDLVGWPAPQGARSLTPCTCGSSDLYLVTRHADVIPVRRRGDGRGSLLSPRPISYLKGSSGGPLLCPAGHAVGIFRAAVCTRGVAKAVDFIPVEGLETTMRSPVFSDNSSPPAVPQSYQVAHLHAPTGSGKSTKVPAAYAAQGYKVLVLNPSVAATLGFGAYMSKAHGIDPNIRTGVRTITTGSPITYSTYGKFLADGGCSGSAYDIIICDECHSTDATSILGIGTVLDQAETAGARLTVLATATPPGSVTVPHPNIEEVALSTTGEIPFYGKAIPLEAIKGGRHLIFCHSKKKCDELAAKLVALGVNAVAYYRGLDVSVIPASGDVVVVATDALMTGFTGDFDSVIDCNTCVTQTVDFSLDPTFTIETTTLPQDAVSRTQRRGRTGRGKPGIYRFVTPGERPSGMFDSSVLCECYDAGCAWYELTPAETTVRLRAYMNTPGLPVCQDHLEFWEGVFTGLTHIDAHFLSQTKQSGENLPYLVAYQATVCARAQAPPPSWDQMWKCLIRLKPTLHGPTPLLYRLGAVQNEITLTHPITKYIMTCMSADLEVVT
Neuropeptide Y receptor type 2, sequence (P49146 whole entry): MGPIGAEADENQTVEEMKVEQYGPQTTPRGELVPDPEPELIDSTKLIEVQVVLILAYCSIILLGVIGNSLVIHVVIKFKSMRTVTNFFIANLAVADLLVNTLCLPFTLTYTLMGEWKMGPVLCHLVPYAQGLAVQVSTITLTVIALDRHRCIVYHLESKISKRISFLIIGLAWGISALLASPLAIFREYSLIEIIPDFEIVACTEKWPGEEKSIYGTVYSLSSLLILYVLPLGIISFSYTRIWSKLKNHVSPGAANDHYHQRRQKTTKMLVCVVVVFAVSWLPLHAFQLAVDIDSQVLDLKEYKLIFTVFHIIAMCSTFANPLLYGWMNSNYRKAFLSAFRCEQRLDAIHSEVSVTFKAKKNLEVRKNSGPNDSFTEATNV

On to `O=C1C=CC(=NNc2ccccc2)C=CC1=O`, for which the AC50 in [1] was 2.02 µM (active). Also, the EC50 in assay [2] is 0.237 µM (active); in the assay on Streptococcus it was 9.57 µM (active); in assay [3], > 160 µM (inactive); in assay [4], 0.887 µM (active); in assay [5], 2.47 µM (active); in assay [6] it was 2.86 µM (active). In addition, the IC50 on Genome polyprotein is 91.2 µM (active); against NS3, 12.6 µM (not active). The CC50 with Vero is 23 µM (active).

Regarding `COc1ccc(OC)c(Nc2nc(=O)c3cccnc3s2)c1`, the values for the IC50 in assay [7] and in [8] were 50 µM (inactive) and > 39.8 µM (not active), respectively.

`COc1ccc(N=C(S)NC(NC(=O)c2cccc(Cl)c2)C(Cl)(Cl)Cl)c([N+](=O)[O-])c1` (stereo not drawn): the EC50 is 1.6 µM (active) in [9]; 16.7 µM (not active) in [12]; > 35.4 µM (not active) in [13]; > 35.4 µM (not active) in the assay on HEK293; > 30 µM (not active) in [14]. Further, the IC50 in assay [10] and in assay [11] was > 66 µM (inactive) each time.

In the case of `COc1cc(C(C#N)N2CCOCC2)ccc1O` (stereo not drawn), the EC50 in [15] and in assay [16] was > 55.7 µM (not active) in each case.

With `O=C(NCCC1=CCCCC1)Nc1ccc2nsnc2c1`, the IC50 is recorded as > 56 µM (not active) against Insulin-degrading enzyme and 23.8 µM (not active) in assay [17].
